Measurements from patent US10829648B2, “Succinate dehydrogenase inhibitor containing compositions” (priority 2012, dated 2020).
≈ marks a conversion by molar mass, not a printed value. Where two headings read alike, the source gives them in different places.

Columns and labels:
Format in all cases: cell-based
[1] = tested on: Aspergillus brasiliensis (ATCC 16404); test: Microtiter plate minimum inhibitory concentration (MIC) test, A. brasiliensis; conditions: for MIC: Aspergillus brasiliensis, ATCC16404, 168 h, read-out: MIC alone
Description: (§1) Sample stock solution of Penflufen was prepared in DMSO at 20000 ppm (active ingredient).
(§2) Microorganisms grown on agar slants were harvested using standard microbiological techniques. The numbers of mold spores were determined by counted using a hemocytometer, and then inoculum was prepared in the media shown in Table 2. Then, 190 ul of inoculum was added into each well containing 10 ul of the serially diluted sample solution.

[2] = tested on: Trichoderma virens (ATCC 9645); test: Microtiter plate MIC test, T. virens; conditions: for MIC: Trichoderma virens, ATCC9645, 168 h, read-out: MIC alone
Description: as §1, §2

[3] = tested on: Aspergillus niger (ATCC 9642); test: Microtiter plate MIC test, A. niger; conditions: for MIC: Aspergillus niger, ATCC9642, 168 h, read-out: MIC alone
Description: as §1, §2

P. pinophilum = test: Microtiter plate MIC test, P. pinophilum; conditions: for MIC: 168 h, read-out: MIC alone
Description: as §1, §2

[4] = tested on: Aureobasidium pullulans (ATCC 9348); test: Microtiter plate MIC test, A. pullulans; conditions: for MIC: Aureobasidium pullulans, ATCC9348, 168 h, read-out: MIC alone
Description: as §1, §2

Coniophora puteana = test: Agar dilution MIC against decay fungus Coniophora puteana; conditions: for MIC: Coniophora puteana, 216 h, read-out: Coniophora puteana MIC (ppm)
Description: (§3) Total 17 samples, including Penflufen, 8 Penflufen-potentiator blends and 8 potentiators were submitted for evaluation.
(§4) Decay fungi Antrodia sinuosa and Coniophora puteana were obtained from GTS microbiology lab fungal collection and cultured on Potato Dextrose Agar at 28° C.
(§5) The samples were diluted to test at a starting concentration of 1,000 ppm active based on the concentration of Penflufen in the samples. Samples were serially diluted into the molten Potato Dextrose Agar before the agar was solidified. The agar plugs with active fungal hyphae growth were inoculated onto the prepared agar surface.
(§6) All concentrations reported are in ppm.

Antrodia sinuosa = test: Agar dilution MIC against decay fungus Antrodia sinuosa; conditions: for MIC: Adustoporia sinuosa, 216 h, read-out: Antrodia sinuosa MIC (ppm)
Description: as §3, §4, §5, §6

[5] = substance alone, A. brasiliensis, 28° C., 7 days, ppm
[6] = substance alone, T. virens, 28° C., 7 days, ppm
[7] = substance alone, A. niger, 28° C., 7 days, ppm
[8] = substance alone, P. pinophilum, 28° C., 7 days, ppm
[9] = substance alone, A. pullulans, 28° C., 7 days, ppm
[10] = active or potentiator alone, Potato Dextrose Agar, 28° C., 9 days, complete inhibition of hyphae growth

Molecule	MIC alone [1, 5] [ppm]	MIC alone [2, 6] [ppm]	MIC alone [3, 7] [ppm]	MIC alone (P. pinophilum; [8]) [ppm]	MIC alone [4, 9] [ppm]	Coniophora puteana MIC (ppm) (Coniophora puteana; [10])	Antrodia sinuosa MIC (ppm) (Antrodia sinuosa; [10])	also measured
Cc1ccc(S(N)(=O)=O)cc1	5000	5000	5000	5000	5000			
CCCCCCCCCCCCN(C)C [Barlene 12, N,N-Dimethyl-N-dodecylamine]								MIC [1]: 31.2 µg/mL (≈ 146 µM); MIC [2]: 7.81 µg/mL (≈ 36.6 µM); MIC [3]: 250 µg/mL (≈ 1170 µM); MIC (P. pinophilum): 7.81 µg/mL (≈ 36.6 µM); MIC [4]: 7.81 µg/mL (≈ 36.6 µM); MIC (Coniophora puteana): 500 µg/mL; MIC (Antrodia sinuosa): 250 µg/mL
CC(=O)c1c([O-])cc(C)oc1=O.CC(=O)c1c([O-])cc(C)oc1=O.[Zn+2] [DHA Zn, Dehydroacetic acid zinc salt]	500	250	500	>1000	1000	125	125	
CCCCCCCC/C=C\CCCCCCCCN [Oleylamine, (Z)-Octa-9-decenylamine]	2.5	0.625	1.25	1.25	0.31	50.0	50.0	
Cc1nn(C)c(F)c1C(=O)Nc1ccccc1C(C)CC(C)C (centres unmarked) [Penflufen, N-[2-(1,3-dimethylbutyl)phenyl]-5-fluoro-1,3-dimethyl-1H-pyrazole-4-carboxamide, reference compound]								MIC [1, 5]: 15.7 µg/mL (≈ 49.3 µM); MIC [2, 6]: > 1000 µg/mL; MIC [3, 7]: 7.81 µg/mL (≈ 24.6 µM); MIC (P. pinophilum; [8]): > 1000 µg/mL; MIC [4, 9]: 500 µg/mL (≈ 1580 µM); MIC (Coniophora puteana; [10]): 125 µg/mL; MIC (Antrodia sinuosa; [10]): 62.5 µg/mL
O=C([O-])c1ccccc1.[Na+] [Sodium benzoate]						313	1250	
Isononoic Acid	1250	625	625	625	625	156	313	
Tris(2-hydroxyethyl)-N-tallowalkyl-1,3-diaminopropane [Ethoduomeen]	<4.88	<4.88	<4.88	<4.88	9.76	2500	625	
cocoamine oxide [Barlox 12]	62.5	125	15.62	62.5	15.62	250	62.5	
